The values below come from patent US9732032B2, “3-aminocyclopentane carboxamide derivatives” (Merck Patent GmbH, priority 2012, dated 2017).

This assay deals with T1, human recombinant full-length fatty acid synthase (FASN) (Homo sapiens, UniProt P49327).
T1 construct: human recombinant full-length fatty acid synthase; made in house; host or cells: SF9 cells
In words: Biochemical activity testing of human fatty acid synthase FASN (NADPH fluorescence intensity assay). The note with it: NADPH fluorescence decrease (ex 340 nm / em 460 nm), 30 minutes at room temperature, read-out: IC50 FASN (enzyme assay).

T1 sequence (P49327 whole entry): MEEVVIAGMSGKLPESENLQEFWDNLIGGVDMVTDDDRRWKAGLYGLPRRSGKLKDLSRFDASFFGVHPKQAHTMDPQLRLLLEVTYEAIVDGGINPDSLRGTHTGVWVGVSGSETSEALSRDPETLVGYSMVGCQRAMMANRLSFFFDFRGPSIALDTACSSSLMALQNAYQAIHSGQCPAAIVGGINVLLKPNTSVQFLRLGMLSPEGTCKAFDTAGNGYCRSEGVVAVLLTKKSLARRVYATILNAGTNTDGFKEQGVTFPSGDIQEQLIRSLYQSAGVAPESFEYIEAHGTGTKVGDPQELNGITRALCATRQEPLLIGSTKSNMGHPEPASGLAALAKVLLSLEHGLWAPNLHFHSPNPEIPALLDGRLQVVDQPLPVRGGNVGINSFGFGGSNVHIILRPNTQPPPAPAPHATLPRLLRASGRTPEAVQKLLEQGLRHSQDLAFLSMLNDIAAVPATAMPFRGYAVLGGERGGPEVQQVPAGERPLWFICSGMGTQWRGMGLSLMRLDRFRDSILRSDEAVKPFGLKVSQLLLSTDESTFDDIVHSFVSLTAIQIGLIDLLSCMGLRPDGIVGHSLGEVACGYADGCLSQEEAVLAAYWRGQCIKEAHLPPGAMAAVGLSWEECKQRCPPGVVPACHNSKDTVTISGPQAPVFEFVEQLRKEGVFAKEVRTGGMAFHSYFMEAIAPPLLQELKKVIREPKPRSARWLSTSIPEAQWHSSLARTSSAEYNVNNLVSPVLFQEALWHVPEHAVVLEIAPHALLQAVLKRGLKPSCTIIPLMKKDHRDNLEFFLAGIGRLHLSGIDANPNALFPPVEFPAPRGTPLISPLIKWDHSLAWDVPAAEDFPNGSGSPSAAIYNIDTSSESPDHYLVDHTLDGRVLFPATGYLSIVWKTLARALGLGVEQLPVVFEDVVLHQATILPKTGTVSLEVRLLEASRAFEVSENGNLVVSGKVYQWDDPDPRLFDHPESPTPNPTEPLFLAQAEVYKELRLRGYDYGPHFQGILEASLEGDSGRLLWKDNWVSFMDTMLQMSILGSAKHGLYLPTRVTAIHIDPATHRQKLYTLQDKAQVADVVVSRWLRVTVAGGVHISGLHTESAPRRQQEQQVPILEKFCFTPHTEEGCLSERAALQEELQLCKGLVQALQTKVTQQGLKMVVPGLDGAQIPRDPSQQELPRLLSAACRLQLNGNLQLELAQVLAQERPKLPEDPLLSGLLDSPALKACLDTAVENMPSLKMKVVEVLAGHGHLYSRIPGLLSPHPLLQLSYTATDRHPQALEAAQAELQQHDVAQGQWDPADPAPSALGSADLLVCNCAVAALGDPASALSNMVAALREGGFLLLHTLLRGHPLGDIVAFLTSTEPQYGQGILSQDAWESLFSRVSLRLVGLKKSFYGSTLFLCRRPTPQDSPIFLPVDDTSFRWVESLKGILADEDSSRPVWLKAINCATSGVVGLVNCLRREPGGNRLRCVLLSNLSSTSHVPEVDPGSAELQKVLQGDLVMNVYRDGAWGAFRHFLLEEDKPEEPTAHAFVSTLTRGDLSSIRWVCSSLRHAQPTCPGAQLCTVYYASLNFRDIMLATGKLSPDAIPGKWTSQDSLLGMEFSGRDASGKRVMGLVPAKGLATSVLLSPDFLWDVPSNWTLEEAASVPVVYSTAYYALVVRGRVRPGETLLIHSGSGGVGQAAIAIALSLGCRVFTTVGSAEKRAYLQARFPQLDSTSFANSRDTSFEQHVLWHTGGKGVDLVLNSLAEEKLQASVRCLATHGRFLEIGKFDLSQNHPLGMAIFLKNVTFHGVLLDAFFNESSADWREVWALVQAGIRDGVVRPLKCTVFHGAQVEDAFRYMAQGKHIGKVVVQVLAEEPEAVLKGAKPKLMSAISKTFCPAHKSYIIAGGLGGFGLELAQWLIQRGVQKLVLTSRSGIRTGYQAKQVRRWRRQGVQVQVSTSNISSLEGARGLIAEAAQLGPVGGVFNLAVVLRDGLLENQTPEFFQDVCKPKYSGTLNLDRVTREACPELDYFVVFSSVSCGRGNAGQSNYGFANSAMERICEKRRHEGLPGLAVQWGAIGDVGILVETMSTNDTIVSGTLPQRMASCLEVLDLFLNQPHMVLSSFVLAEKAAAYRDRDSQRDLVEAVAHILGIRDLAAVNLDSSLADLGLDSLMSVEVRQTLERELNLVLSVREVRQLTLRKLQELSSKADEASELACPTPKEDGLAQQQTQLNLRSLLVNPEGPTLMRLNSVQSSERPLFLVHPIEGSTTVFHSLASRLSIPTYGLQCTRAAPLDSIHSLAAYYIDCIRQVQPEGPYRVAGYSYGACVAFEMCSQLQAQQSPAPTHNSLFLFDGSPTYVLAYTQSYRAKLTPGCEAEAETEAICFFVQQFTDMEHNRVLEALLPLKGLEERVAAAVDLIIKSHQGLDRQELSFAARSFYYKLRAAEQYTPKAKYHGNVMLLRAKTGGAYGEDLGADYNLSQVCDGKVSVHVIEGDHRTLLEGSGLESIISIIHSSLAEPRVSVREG

As for `CCNC(=O)[C@H]1CC[C@@H](N(C)C(=O)c2ccc(-c3ccc(F)cc3)cc2)C1` [Compound A104, 4′-fluoro-biphenyl-4-carboxylic acid ((1R,3S)-3-ethylcarbamoyl-cyclopentyl)-methyl-amide], the IC50 is under 0.3 µM. The figure for `CN(C(=O)c1ccc(-c2nc3ccccc3o2)cc1)[C@@H]1CC[C@H](C(=O)NCCO)C1` [Compound A106, 4-benzoxazol-2-yl-N-[(1R,3S)-3-(2-hydroxy-ethylcarbamoyl)-cyclopentyl]-N-methyl-benzamide] is under 0.3 µM; for `CCNC(=O)[C@H]1CC[C@@H](N(C)C(=O)c2ccc(-c3cccc4[nH]ncc34)cc2)C1` [Compound A107, N-((1R,3S)-3-ethylcarbamoyl-cyclopentyl)-4-(1H-indazol-4-yl)-N-methyl-benzamide] it is under 0.3 µM.

As to `CN(C(=O)c1ccc(-c2nc3ccccc3o2)cc1)[C@@H]1CC[C@H](C(=O)NC2(CO)CC2)C1` [Compound A108, 4-benzoxazol-2-yl-N-[(1R,3S)-3-(1-hydroxymethyl-cyclopropylcarbamoyl)-cyclopentyl]-N-methyl-benzamide], the half-inhibitory concentration (IC50) was 0.3 to 3 µM.
